Experimental data reported in patent publication US4537719A, “4-Methylsulfonyl-azetidinone derivatives” (Ajinomoto Company Incorporated, priority 1981, dated 1985).

Target: T1, β-lactamase (Enterobacter cloacae, UniProt P05364)
T1 construct: obtained by destruction of the microbial cells with ultrasonic waves; endogenous in cells
Test: β-lactamase inhibition (iodometric absorbance at 575 nm; β-lactamase solution obtained by ultrasonic destruction of microbial cells)
Assay type: biochemical
Settings: Enterobacter cloacae used as the β-lactamase-producing microorganism; pH 7.0, 30° C., 20 minutes; sample concentration not given
Procedure: A phosphate buffer solution (pH 7.0, 0.5M, 0.2 ml), a sample*, which is a β-lactamase inhibiting agent, dissolved in the same buffer solution as mentioned above, and water (10 ml) were put in a test tube. In this tube, ampicillin (2 mM, 0.2 ml) in the case of penicillinase, and cephaloridine (2 mM, 0.2 ml) in the case of cephalosporinase, were added. This mixture was stirred moderately for 5 minutes at 30° C. in a thermostat. Microbial cells producing β-lactamase were collected, washed and suspended in the same buffer solution as above and thereto a β-lactamase solution (0.1 ml) obtained by destruction of the microbial cells with ultrasonic waves was added and reacted for 20 minutes.
The reaction was stopped by adding sodium tungstate (0.15M, pH 4.0, 1 ml) and an iodo reagent (3 ml) having iodine (0.1 mM), potassium iodide (1.6 mM) and 0.4% starch solution, (pH 6.0) was added thereto and was allowed to stand for 20 minutes. The absorbance was determined at 575 nm.
On the other hand, the same experiment as above without the sample (Control) was carried out and the absorbances were determined in the same manner as above.
From each determined value as obtained above, the difference between the absorbance of the blank and that of the sample, referred to as As, and the difference between the absorbance of the blank and that of the Control referred to as AB were obtained, and therefrom the inhibiting ratio was calculated by the following equation:
Inhibiting Ratio(%)=(AS/AB)×100
Some of the results as obtained above, in which Enterobacter cloacae was used as the β-lactamase-producing microorganism was used are as follows: […]

T1 sequence (P05364 21-381): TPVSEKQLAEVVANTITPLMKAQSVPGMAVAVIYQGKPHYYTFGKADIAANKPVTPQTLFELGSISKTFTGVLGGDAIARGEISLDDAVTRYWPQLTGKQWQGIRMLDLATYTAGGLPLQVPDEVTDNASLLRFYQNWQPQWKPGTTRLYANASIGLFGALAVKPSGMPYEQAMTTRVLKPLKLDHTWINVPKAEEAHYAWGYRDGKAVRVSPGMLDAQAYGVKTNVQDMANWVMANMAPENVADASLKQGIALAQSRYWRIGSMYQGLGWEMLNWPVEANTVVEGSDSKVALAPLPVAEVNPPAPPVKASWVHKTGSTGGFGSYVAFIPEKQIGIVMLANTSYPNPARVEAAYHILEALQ

Row | Structure (SMILES) | Inhibiting Ratio (%)
1 | COC(=O)C(C(=O)O)N1C(=O)CC1SC (stereo not shown) [Sample 1, 1-(1-carboxy-1-methyoxycarbonylmethyl)-4-methylthio-2-azetidinone] | 46.2%
2 | COC(=O)C(C(=O)O)N1C(=O)CC1S(C)(=O)=O (stereo not shown) [Sample 2, 1-(1-carboxy-1-methoxycarbonylmethyl)-4-methylsulfonyl-2-azetidinone] | 51.4%
3 | CC(C)=C(C(=O)O)N1C(=O)[C@@H](NC(=O)[C@H](N)c2ccccc2)[C@H]1S(C)(=O)=O [Sample 3, (3R,4R)-1-(1-carboxy-2-methylprope-1-nyl)-4-methylsulfonyl-3-[D-(-)-α-aminophenylacetamide]-2-azetidinone] | 27.6%
4 | CC(C)=C(C(=O)O)N1C(=O)[C@@H](N)[C@H]1S(C)(=O)=O [Sample 4, (3R, 4R)-1-(1-carboxy-2-methylprope-1-nyl)-4-methylsulfonyl-3-amino-2-azetidinone] | 35.8%
